Patent US20130251632A1, “APOPTOSIS PET IMAGING AGENTS” (GE HEALTHCARE LIMITED, priority 2010, published 2013)

Assay: Affinity for phosphatidylethanolamine, Biacore 3000 with L1 chip and captured liposomes
Format: binding
Settings: POPE/POPC liposomes (20% PE)
Source text: A Biacore 3000 (GE Healthcare, Uppsala) was equipped with an L1 chip. Liposomes made of POPE/POPC (20% PE) were applied for the affinity study using the capture technique recommended by the manufacturer. Each run consisted of activation of the chip surface, immobilization of liposomes, binding of peptide and wash off of both liposomes and peptide (regeneration). Similar applications can be found in Frostell-Karlsson et al [Pharm. Sciences, V.94 (1), (2005)]. Thorough washing of needle, tubing and liquid handling system with running buffer was performed after each cycle.
BIACORE software: The BIACORE control software including all method instructions was applied. A method with commands was also written in the BIACORE Method Definition Language (MDL) to have full control over pre-programmed instructions. BIACORE evaluation software was applied for analysing the sensorgrams.

Substance: duramycin
- ka: ~20000 M⁻¹ s⁻¹
